The record followed here is US6645969B1, “Aryl and heteroaryl quinazoline compounds which inhibit CSF-1R receptor tyrosine kinase” (Aventis Pharmaceuticals Inc., priority 1991, dated 2003).

The target in one data set is T1, CSF-1R tyrosine kinase (Homo sapiens, UniProt P07333).
T1 construct: host or cells: unnamed cell lysate ('stimulated lysate')
The experiment in a line: CSF-1R cell-free autophosphorylation assay. In kind it is biochemical. The procedure:
CSF-1R Cell-free Autophosphorylation Assay
For a regular 28 tube assay (14 samples per 15 well gel):
In 2 ml eppendorf tube: 140 mg protein A sepharose (5 mg/sample)
Swell in 20 mM Hepes pH 7.5 and wash 2× in Hepes
In 15 ml tube: 2.8 ml lysate lysis buffer: 20 mM Hepes
Protease inhibitors added fresh:
PMSF: 8 mg/ml=[…] in 100% EtOH, store frozen, add 100 λ/10 ml lysis buffer Aprotinin: 10 mg/ml=250× in H2O, store frozen, add 40 λ/10 ml lysis buffer Leupeptin: 1 mg/ml=250× in H2O, store frozen, add 40 λ/10 ml lysis buffer Add washed beads to stimulated lysate and incubate 90 min 4° C. on rotator or shaking prepare 28 compound tubes: make 40 mM solutions of compounds in 100% DMSO make serial dilutions in 50 mM Tris pH 7.5+10 mM MnCl2 aliquot 10λ compound solution into each 1 ml eppendorf reaction tube waiting on ice, control blanks get 10λ buffer Wash beads 1×HNTG, 2×10 mM Tris pH 7.5
2.7λ cold ATP (stock of 10 mM in 50 mM
Vortex, incubate 10 min on ice
Add 45λ 2×SDS-sample buffer, heat 95° C. 6 min
7.5% SDS-PAGE, fix, dry, expose (usually 4 hrs)

The target in a further data set is T2, p56^Ick tyrosine kinase (Homo sapiens, UniProt P06239).
T2 construct: samples containing Ick immuno-precipitated from 2×10^6 cells; endogenous in cells; host or cells: Jurkat (human T-cell leukemia, ATCC clone E6-1)
The experiment in a line: Ick kinase cell-free assay (immunoprecipitated from Jurkat lysate). The data set is classed as biochemical. Here is the method:
Ick Kinase: Immunoprecipitated from Jurkat Lysate
B. Cells are grown to 1-1.5×10^6 cells/ml media, pelleted by centrifugation, and lysed in lysis buffer at 10^8 cells/ml buffer (50 mM tris (pH 8), 150 mM NaCl, 5 mM EDTA, 10% glycerol, and 1% NP-40, to which fresh protease and phosphatase inhibitors are added as described above for A431 lysate). Lysates stored at −70° C.
C. Immunoprecipitation: 3-4 mg Protein-A sepharose/sample washed 2×20 mM Hepes (pH 7.5). 1 ul α-Ick antibody (prepared as polyclonals in rabbits using a peptide antigen corresponding to the N-terminal region of human Ick) per sample added to the Protein-A and shaken 20 min at room temperature. After washing 3× HNTG, lysate from 2×10^6 cells is added to each sample, rotated 2 hr at 4° C., then washed 3× HNTG (2nd wash containing 0.5 N NaCl). If all samples contain identical concentrations of the enzyme, then the immuno-precipitation can be done in bulk and alloquoted to appropriate numbers of tubes prior to assay set-up.
Samples are analyzed by 5-15% SDS-PAGE and autoradiography as described for EGFR kinase assays.

As a reminder, the IC50 is the concentration needed to halve the response being measured. A higher IC50 goes with a need for much substance. The melting point is the temperature, or range, at which the solid turns liquid.

T1 sequence (P07333 20-972): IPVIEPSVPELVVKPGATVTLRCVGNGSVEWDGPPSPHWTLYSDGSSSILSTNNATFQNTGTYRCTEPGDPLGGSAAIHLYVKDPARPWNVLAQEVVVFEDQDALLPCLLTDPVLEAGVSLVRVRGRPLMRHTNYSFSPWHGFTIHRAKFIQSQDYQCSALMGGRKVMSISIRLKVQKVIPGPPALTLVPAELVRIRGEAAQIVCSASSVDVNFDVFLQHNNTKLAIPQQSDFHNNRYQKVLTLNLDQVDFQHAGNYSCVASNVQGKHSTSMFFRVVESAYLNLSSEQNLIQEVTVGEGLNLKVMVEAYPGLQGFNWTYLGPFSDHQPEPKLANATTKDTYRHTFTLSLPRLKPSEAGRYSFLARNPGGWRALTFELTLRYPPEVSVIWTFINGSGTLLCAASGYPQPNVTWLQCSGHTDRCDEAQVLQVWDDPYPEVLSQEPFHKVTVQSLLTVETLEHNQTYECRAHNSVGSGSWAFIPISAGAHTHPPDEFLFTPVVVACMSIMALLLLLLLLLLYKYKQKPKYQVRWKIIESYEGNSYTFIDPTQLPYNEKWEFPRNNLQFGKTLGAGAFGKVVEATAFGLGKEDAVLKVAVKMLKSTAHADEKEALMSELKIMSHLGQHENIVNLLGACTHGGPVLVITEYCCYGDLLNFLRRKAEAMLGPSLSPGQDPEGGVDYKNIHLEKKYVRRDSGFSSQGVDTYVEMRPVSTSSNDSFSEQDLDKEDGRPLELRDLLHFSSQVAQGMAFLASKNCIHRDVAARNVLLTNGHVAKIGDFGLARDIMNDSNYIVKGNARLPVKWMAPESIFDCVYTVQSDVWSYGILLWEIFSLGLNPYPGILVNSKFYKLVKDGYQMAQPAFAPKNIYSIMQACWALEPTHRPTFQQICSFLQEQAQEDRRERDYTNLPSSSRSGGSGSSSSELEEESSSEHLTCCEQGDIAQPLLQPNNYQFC
T2 sequence (P06239 whole entry): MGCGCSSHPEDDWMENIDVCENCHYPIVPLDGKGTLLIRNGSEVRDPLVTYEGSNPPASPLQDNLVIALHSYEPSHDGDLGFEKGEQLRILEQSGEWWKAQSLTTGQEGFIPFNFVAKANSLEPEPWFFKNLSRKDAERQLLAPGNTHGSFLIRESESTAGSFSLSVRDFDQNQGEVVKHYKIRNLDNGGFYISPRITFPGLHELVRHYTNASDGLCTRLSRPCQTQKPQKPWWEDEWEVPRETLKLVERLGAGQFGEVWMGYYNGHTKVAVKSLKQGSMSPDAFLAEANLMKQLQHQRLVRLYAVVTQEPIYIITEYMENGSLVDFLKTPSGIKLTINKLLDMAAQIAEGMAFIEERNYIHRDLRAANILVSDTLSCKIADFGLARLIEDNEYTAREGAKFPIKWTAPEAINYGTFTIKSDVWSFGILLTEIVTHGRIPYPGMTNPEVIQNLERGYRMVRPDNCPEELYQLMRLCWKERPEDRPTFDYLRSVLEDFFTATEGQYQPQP

Turning to `COc1cc2ncnc(-c3ccsc3)c2cc1OC`, the IC50 against CSF-1R tyrosine kinase was 6 µM; on p56^Ick tyrosine kinase, more than 10 µM.

Take `COc1cc2ncnc(N(C)c3ccccc3)c2cc1OC`: the half-inhibitory concentration (IC50) at CSF-1R tyrosine kinase was 0.5 µM; against p56^Ick tyrosine kinase it was more than 50 µM.

On to `CCN(c1ccccc1)c1ncnc2cc(OC)c(OC)cc12`, for which the figures for the IC50 on CSF-1R tyrosine kinase and against p56^Ick tyrosine kinase were 4 µM and more than 50 µM, respectively.

`COc1cc(Nc2ncnc3cc(OC)c(OC)cc23)cc(OC)c1` displayed an IC50 against CSF-1R tyrosine kinase of more than 100 µM.

Consider `COc1cc2ncnc(Nc3cc(OC)c(OC)c(OC)c3)c2cc1OC`, for which the IC50 on CSF-1R tyrosine kinase was more than 100 µM.

`COc1cc2ncnc(NC3CCCCC3)c2cc1OC` registered an IC50 against CSF-1R tyrosine kinase of more than 50 µM.

In turn, `COc1cc2ncnc(Nc3ccc4ccccc4c3)c2cc1OC` had a half-maximal inhibitory concentration (IC50) against CSF-1R tyrosine kinase of more than 50 µM.

Consider `COc1cc2ncnc(Nc3cccc4ccccc34)c2cc1OC`, for which the IC50 at CSF-1R tyrosine kinase was more than 50 µM; against p56^Ick tyrosine kinase, 2.5 µM.

As for `COc1ccc(Nc2ncnc3cc(OC)c(OC)cc23)cc1OC`, the IC50 against CSF-1R tyrosine kinase was more than 20 µM.

With `COc1cc2ncnc(NCc3ccccc3)c2cc1OC`, the IC50 on CSF-1R tyrosine kinase is not below 20 µM; at p56^Ick tyrosine kinase, 20 µM.

As for `COc1cc2ncnc(Sc3cccc(Cl)c3)c2cc1OC`, the IC50 on CSF-1R tyrosine kinase is 3 µM; at p56^Ick tyrosine kinase, 2.5 µM.

Consider `COc1cccc(Sc2ncnc3cc(OC)c(OC)cc23)c1`, for which the IC50 against CSF-1R tyrosine kinase amounted to 1 µM; against p56^Ick tyrosine kinase, 5 µM.

Turning to `COc1cc2ncnc(Oc3cc(OC)c(OC)c(OC)c3)c2cc1OC`, the values for the IC50 against CSF-1R tyrosine kinase and against p56^Ick tyrosine kinase were more than 50 µM and 5 µM, respectively.

In the case of `COc1cc2ncnc(-c3cccc(-c4ccccc4)c3)c2cc1OC`, the IC50 amounted to 15 µM against CSF-1R tyrosine kinase and 2.9 µM at p56^Ick tyrosine kinase.

With `COc1cc2ncnc(Oc3cccc(Cl)c3)c2cc1OC` [Example 1, 4-(3-Chlorophenoxy)-6,7-dimethoxyquinazoline], the melting point is 152 to 153 °C.

As to `COc1cc2ncnc(Oc3cccc(Cl)c3)c2cc1OC` [drawing 19], the IC50 at CSF-1R tyrosine kinase is more than 50 µM; at p56^Ick tyrosine kinase it was 1 µM.
